We go through one molecule from patent US20250375453A1, “HIGH-EFFICIENCY ANTIMICROBIAL COMPOSITION” (CM4CURE S.A., priority 2023, published 2025).

In data set [1] the test system is Staphylococcus aureus MSSA. The settings on record: cited from earlier work.
Data set [2] has as its system Staphylococcus aureus MRSA. Particulars: cited from earlier work.
The subject of data set [3] is Lactobacillus acidophilus. The settings on record: cited from earlier work.
Another data set has as its system Aspergillus spp. Particulars: cited from earlier work.
The subject of another data set is Pseudomonas aeruginosa. Particulars: cited from earlier work.
Data set [4] deals with Staphylococcus aureus (MRSA, ATCC 6538). The data set is described as follows: Real-time microcalorimetric measurement of bacterial metabolic activity (heat flow, Calscreener). Format: cell-based. The protocol:
Staphylococcus aureus (MRSA, ATCC 6538) was grown overnight in TSB (tryptic soy broth) medium, before being diluted 1×10^6 fold in fresh TSB. Subsequently […] aliquots of diluted bacteria suspensions were respectively supplemented with 1 and 2 mg/L of chlorhexidine (digluconate solution, 20% in H2O, Merck). […] The aqueous solution of chlorhexidine and the ethanol-based solution of triafluocyl were kept refrigerated. Chlorhexidine, triafluocyl or both, and ethanol as a vehicle were added to the bacterial suspensions to obtain the given concentrations followed by a brief vortexing. Bacterial aliquots were then distributed in the dedicated non-activated inserts of a 48-well plate and grown for 24 h or more under static conditions at 37 C using Calscreener technology to measure bacterial growth and metabolic activity in Real-Time as described in https://cordis.europa.eu/project/id/784514.
Staphylococcus aureus (MRSA, ATCC 6538) was grown overnight in TSB (tryptic soy broth) medium, before being diluted 1×10^6 fold in fresh TSB. Subsequently […] aliquots of diluted bacteria suspensions were respectively supplemented with 0.25, 0.5 and 1 μg/mL of chlorhexidine (digluconate solution, 20% in H2O, Merck) or alexidine dihydrochloride (stock solution of 3 mg/mL in ethanol, Merck).
The aqueous solution of chlorhexidine and the ethanol-based solution of alexidine were kept refrigerated. Chlorhexidine, alexidine, and ethanol as a vehicle were added to the bacterial suspensions to obtain the given concentrations followed by a brief vortexing. Bacterial aliquots were then distributed in the dedicated non-activated inserts of a 48-well plate and grown for 24 h or more under static conditions at 37 C using Calscreener technology to measure bacterial growth and metabolic activity in Real-Time as described in https://cordis.europa.eu/project/id/784514.
Staphylococcus aureus (MRSA, ATCC 6538) was grown overnight in TSB (tryptic soy broth) medium, before being diluted 1×10^6 fold in fresh TSB. Subsequently […] aliquots of diluted bacteria suspensions were respectively supplemented with […] of alexidine dihydrochloride (stock solution of 3 mg/mL in ethanol, Merck). […] The ethanol-based solutions of alexidine and fluometacyl were stored at −20° C.
Alexidine alone or with fluometacyl, and ethanol as a vehicle were added to the bacterial suspensions to obtain the given concentrations followed by a brief vortexing. Bacterial aliquots were then distributed in the dedicated non-activated inserts of a 48-well plate and grown for 24 h or more under static conditions at 37 C using Calscreener technology to measure bacterial growth and metabolic activity in Real-Time.

Another data set has as its system Candida albicans. Particulars: cited from earlier work.
Data set [5] has as its system Pseudomonas aeruginosa (ATCC 15442). In words: Real-time microcalorimetric measurement of bacterial metabolic activity (heat flow, Calscreener). The class given is cell-based. The settings on record: chlorhexidine digluconate alone, tested 1-24 mg/L, TSB, 37 C, 24 h or more. The protocol: Pseudomonas aeruginosa (ATCC 15442) was grown overnight in TSB (tryptic soy broth) medium, before being diluted 1×10^7 fold in fresh TSB. Subsequently […] aliquots of diluted bacteria suspensions were respectively supplemented with 1, 2, 4, 6, 12 and 24 mg/L of chlorhexidine (digluconate solution, 20% in H2O, Merck). The aqueous solution of chlorhexidine was kept refrigerated according to the manufacturer's technical sheet. Chlorhexidine or mQH2O as a vehicle were added to the bacterial suspensions to obtain the given concentrations followed by a brief vortexing. Bacterial aliquots were then distributed in the dedicated non-activated inserts of a 48-well plate and grown for 24h or more under static conditions at 37 C using Calscreener technology to measure bacterial growth and metabolic activity in Real-Time as described in https://cordis.europa.eu/project/id/784514.
For the study of the combination of chlorhexidine and triafluocyl aforementioned diluted bacterial suspensions were supplemented with either chlorhexidine alone (1, 2, 4, 6, 12 mg/L) or mixed with triafluocyl (20 mg/L, Polpharma). Triafluocyl was stored in absolute ethanol in the refrigerator at a concentration of 3 mg/mL. Triafluocyl, chlorhexidine or both, and ethanol as a vehicle were added to the bacterial suspensions to obtain the given concentrations.
Pseudomonas aeruginosa (ATCC 15442) was grown overnight in TSB (tryptic soy broth) medium, before being diluted 1×10^7 fold in fresh TSB. Subsequently […] aliquots of diluted bacteria suspensions were respectively supplemented with […] of alexidine dihydrochloride (stock solution of 3 mg/mL in ethanol, Merck). […] The stock solutions of alexidine and fluometacyl were kept frozen according to the manufacturer's technical sheet. Alexidine alone or with fluometacyl, and ethanol as a vehicle were added to the bacterial suspensions to obtain the given concentrations followed by a brief vortexing. […]

In the next data set the test system is Klebsiella spp. The settings on record: cited from earlier work.
Another data set relates to Candida tropicalis. The settings on record: cited from earlier work.
A further data set concerns Lactobacillus fermentum. Particulars: cited from earlier work.
The test system of a further data set is Escherichia coli. The settings on record: cited from earlier work.
The next data set deals with Streptococcus mutans. Particulars: cited from earlier work.
The subject of a further data set is Candida krusei. Particulars: cited from earlier work.
The subject of another data set is Lactobacillus reuteri. The settings on record: cited from earlier work.
In another data set the test system is Porphyromonas gingivalis. Particulars: cited from earlier work.
For data set [6] the following is noted: chlorhexidine base; cited from earlier work.
In another data set the test system is Enterococcus faecalis. Particulars: cited from earlier work.

Take `[H]/N=C(\N/C(=N/[H])NCCCCCCNC(=N)NC(=N)Nc1ccc(Cl)cc1)Nc1ccc(Cl)cc1` [Chlorhexidine, chlorhexidine]: the MIC of chlorhexdine in [1] is 0.25 to 8 µg/mL; in [2], 2 to 8 µg/mL; in data set [3] it was 0.5 to 2 µg/mL; with Aspergillus spp. it was 8 to 64 µg/mL; with Pseudomonas aeruginosa, 16 to 32 µg/mL; in the data set with Candida albicans it was 1 to 16 µg/mL. In addition, the MIC of chlorhexdine is 8 to 16 µg/mL in the data set on Klebsiella spp.; 75 µg/mL with Candida tropicalis; 0.25 to 1 µg/mL with Lactobacillus fermentum; 2 to 16 µg/mL with Escherichia coli; 0.9 to 4 µg/mL in the data set with Streptococcus mutans; 150 µg/mL with Candida krusei. The MIC of chlorhexdine in the data set on Lactobacillus reuteri was 0.125 to 4 µg/mL; in the data set on Porphyromonas gingivalis, 0.9 µg/mL; in the data set on Enterococcus faecalis, 4 to 16 µg/mL. Moreover, the “effect on metabolic activity (heat flow)” value in data set [4] (chlorhexidine 1 mg/L alone) and in data set [4] (chlorhexidine 1 mg/mL alone (Example 3)) was “strong shift in a metabolic activity” throughout. Moreover, the “concentration with full growth inhibition or bactericidal effect” value in data set [4] (chlorhexidine digluconate alone, tested 1 and 2 mg/L) came to 2 mg/L. Further, in [5], the “concentration that fully inhibits bacterial proliferation” value is recorded as 24 mg/L. Further, in data set [6], the solubility in water result is recorded as “insoluble in water”.
